Reference: PMC8153077, “Inhibiting quinolone biosynthesis of Burkholderia” (Chemical Science, 2021)

Tests used:
[1] = biological target: T1, HmqD (Burkholderia ambifaria, UniProt Q0B3G0); test: competitive live-cell activity-based labelling against probe CAA, in-gel fluorescence
T1 construct: gene Bamb_5766; recombinant HmqD overexpressed in live E. coli BL21

[2] = biological target: T1, HmqD; test: live-cell activity-based labelling with click chemistry and in-gel fluorescence; proteomic identification of the modified site
Excerpt: live-cell activity-based labelling with click chemistry and in-gel fluorescence; proteomic identification of the modified site on HmqD | identified as site of modification by probe CAA only the active site cysteine C114

T1 sequence (Q0B3G0 entry or part of it): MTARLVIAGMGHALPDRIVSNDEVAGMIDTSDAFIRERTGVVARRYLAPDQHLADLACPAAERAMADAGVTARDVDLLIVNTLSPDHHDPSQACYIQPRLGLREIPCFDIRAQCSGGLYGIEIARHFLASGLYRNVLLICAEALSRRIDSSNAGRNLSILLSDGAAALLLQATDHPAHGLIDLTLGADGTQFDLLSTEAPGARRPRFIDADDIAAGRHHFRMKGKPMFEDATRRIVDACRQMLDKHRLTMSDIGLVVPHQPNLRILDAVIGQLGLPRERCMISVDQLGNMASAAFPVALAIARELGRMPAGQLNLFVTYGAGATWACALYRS

## Nc1cc2c(cc1C(=O)CCl)OCCO2 [compound 7]
[1]
  IC50: 0.2 µM

## O=C(CCl)c1ccccc1 [compound 9]
[1]
  IC50: 0.2 µM

## C#CCCC(=O)NCc1ccc(N)c(C(=O)CCl)c1 [CAA]
[2]
  live-cell activity-based labelling with click chemistry and in-gel fluorescence;: 15 nM

## Nc1ccc(I)cc1C(=O)CCl [compound 4]
[1]
  IC50: 0.1 µM
